Test results as given in the supplement of paper PMC10307832.

Tests used:
Assay in all cases: relative viability (nuclei count vs DMSO), 5 days (fraction); higher = more cells survive
[1] = compound: CCn1c(-c2nonc2N)nc2cnc(Oc3cccc(NC(=O)c4ccc(OCCN5CCOCC5)cc4)c3)cc21 + O=C(CCCCCCC(=O)Nc1ccccc1)NO [Vorinostat] (partner 1 µM)
Outline: (§1)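 Cells from lung cancer lines were seeded into 1536-well plates and, one day later, dosed by pin tool. Treatments were either a single drug or a fixed dose of an anchor drug with five library-drug doses (not always all listed) in √10 steps. After 5 days, nuclei were stained in a one-step fixation (final 0.05% Triton X-100, 1% formaldehyde, 1 ug/ml Hoechst) and counted on 4× images, and relative viability is the treated-to-vehicle nuclei ratio, as the median of duplicate plates.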

Mirin + Dasatinib = compound: N=C1NC(=O)/C(=C/c2ccc(O)cc2)S1 [Mirin] + Cc1nc(Nc2ncc(C(=O)Nc3c(C)cccc3Cl)s2)cc(N2CCN(CCO)CC2)n1 [Dasatinib] (partner 0.075 µM)
Outline: as §1

[2] = compound: CCC1=CN=CN=C1N2CCN(CC2)CC3=NC4=C(N3)C=C(C=C4)C(F)(F)F + CS(=O)(=O)CCNCc1ccc(-c2ccc3ncnc(Nc4ccc(OCc5cccc(F)c5)c(Cl)c4)c3c2)o1 [Lapatinib] (partner 2 µM)
Outline: as §1

[3] = compound: CCC1=CN=CN=C1N2CCN(CC2)CC3=NC4=C(N3)C=C(C=C4)C(F)(F)F + CC1(C)CCC(c2ccc(Cl)cc2)=C(CN2CCN(c3ccc(C(=O)NS(=O)(=O)c4ccc(N[C@H](CCN5CCOCC5)CSc5ccccc5)c(S(=O)(=O)C(F)(F)F)c4)cc3)CC2)C1 [Navitoclax] (partner 0.5 µM)
Outline: as §1

Row | Cell Line | relative viability ([1]; first compound 0.04 µM) | relative viability ([1]; first compound 0.1265 µM) | relative viability ([1]; first compound 0.4 µM) | relative viability ([1]; first compound 1.265 µM) | relative viability ([1]; first compound 4 µM) | relative viability (Mirin + Dasatinib; first compound 0.25 µM) | relative viability (Mirin + Dasatinib; first compound 0.7906 µM) | relative viability (Mirin + Dasatinib; first compound 2.5 µM) | relative viability (Mirin + Dasatinib; first compound 7.906 µM) | relative viability (Mirin + Dasatinib; first compound 25 µM) | relative viability ([2]; first compound 0.04 µM) | relative viability ([2]; first compound 0.1265 µM) | relative viability ([2]; first compound 0.4 µM) | relative viability ([2]; first compound 1.265 µM) | relative viability ([2]; first compound 4 µM) | relative viability ([3]; first compound 0.04 µM) | relative viability ([3]; first compound 0.1265 µM) | relative viability ([3]; first compound 0.4 µM) | relative viability ([3]; first compound 1.265 µM) | relative viability ([3]; first compound 4 µM)
1 | 201T | 1.07 | 0.882 | 0.717 | 0.876 | 0.896 | 0.595 | 0.636 | 0.545 | 0.474 | 0.598 | 1.01 | 0.992 | 1.03 | 0.947 | 1.09 | 1.23 | 1.19 | 1.16 | 1.17 | 1.23
2 | A549 | – | – | – | – | – | – | – | – | – | – | 0.885 | 0.948 | 0.823 | 0.945 | 0.808 | 1.14 | 1.13 | 1.12 | 1.16 | 0.945
3 | A-427 | 0.812 | 0.733 | 0.587 | 0.243 | 0.284 | 0.766 | – | 0.78 | 0.714 | 0.632 | 0.795 | 0.991 | 1.01 | 0.911 | 1.05 | 0.873 | 0.9 | 0.915 | 0.872 | 0.826
4 | ABC-1 | 1.25 | 0.8 | 0.822 | 0.32 | 0.665 | 0.682 | 0.525 | 0.62 | 0.536 | 0.375 | 1.23 | 1.24 | 1.25 | 1.01 | 0.98 | – | – | – | – | –
5 | Calu-6 | – | – | – | – | – | – | – | – | – | – | 1.1 | 1.11 | 1.05 | 0.988 | 1.03 | 0.818 | 0.779 | 0.721 | 0.713 | 0.717
6 | ChaGo-K-1 | 1 | 0.684 | 0.514 | 0.536 | 0.55 | 0.504 | 0.575 | 0.541 | 0.542 | 0.39 | – | – | – | – | – | – | 1 | 0.927 | 0.936 | 0.942
7 | EBC-1 | – | – | – | – | – | – | – | – | – | – | 0.224 | 0.3 | 1.47 | 1.52 | 1.31 | 0.422 | 0.49 | 0.396 | 0.415 | 0.434
8 | HCC-44 | 1.13 | 1.18 | 1.14 | 1.07 | 1.09 | – | – | – | – | – | 0.932 | 0.956 | 0.975 | 1.05 | 0.85 | 1.01 | 1.06 | 0.895 | 0.823 | 0.919
9 | IA-LM | 1.08 | 0.997 | 1.03 | 0.998 | 1.39 | – | – | – | – | – | 0.85 | 0.781 | 0.736 | 0.923 | 0.893 | 0.733 | 0.806 | 0.646 | 0.654 | 0.695
10 | LCLC-103H | 0.921 | 0.8 | 0.55 | 0.537 | 0.512 | 0.44 | 0.469 | 0.491 | 0.348 | 0.422 | – | – | – | – | – | – | – | – | – | –
11 | NCI-H358 | 0.814 | 0.736 | 0.715 | 0.715 | 0.511 | 0.2 | 0.16 | 0.161 | 0.134 | 0.13 | 0.477 | 0.399 | 0.428 | 0.337 | 0.387 | – | – | – | – | –
12 | NCI-H441 | 1.04 | 0.705 | 0.87 | 0.502 | 0.47 | 0.662 | 0.556 | 0.622 | 0.59 | 0.439 | – | – | – | – | – | 0.448 | 0.523 | 0.57 | 0.573 | 0.677
13 | NCI-H522 | 1.19 | 0.697 | 0.783 | 0.742 | 0.539 | 0.814 | 0.869 | 0.845 | 0.652 | 0.648 | – | – | – | – | – | – | – | – | – | –
14 | NCI-H650 | 0.503 | 0.28 | 0.24 | 0.192 | 0.224 | 0.455 | 0.391 | 0.397 | – | 0.506 | 0.73 | 0.762 | 1.21 | 1.01 | 1.06 | – | – | – | – | –
15 | NCI-H661 | 0.891 | 0.906 | 0.888 | 0.627 | 0.517 | 0.985 | 0.737 | 0.884 | 0.734 | 0.697 | 0.646 | 0.437 | 0.411 | – | 0.475 | – | – | – | – | –
16 | NCI-H1299 | – | – | – | – | – | – | – | – | – | – | 0.977 | 0.985 | 0.96 | 0.948 | 0.955 | 1.09 | 1.03 | 1.03 | 1.05 | 1.04
17 | NCI-H1563 | – | – | – | – | – | 0.536 | 0.471 | 0.481 | 0.42 | 0.428 | 0.903 | 0.908 | 0.984 | 0.715 | 1.36 | – | – | – | – | –
18 | NCI-H1623 | – | – | – | – | – | 0.46 | 0.426 | 0.542 | 0.44 | 0.497 | – | – | – | – | – | – | – | – | – | –
19 | NCI-H1648 | 0.922 | 0.472 | 0.42 | 1.46 | 1 | – | – | – | – | – | – | – | – | – | – | – | – | – | – | –
20 | NCI-H1703 | – | – | – | – | – | – | – | – | – | – | 0.966 | 0.819 | 0.921 | 0.804 | 0.923 | 0.901 | 1.13 | 1.1 | 0.85 | 1.08
21 | NCI-H1792 | – | – | – | – | – | 0.768 | 0.86 | 0.777 | – | 0.632 | 0.769 | 0.808 | 0.851 | 0.978 | 0.884 | 0.323 | 0.572 | 0.605 | 0.697 | 0.554
22 | NCI-H2342 | 0.834 | 0.746 | 0.752 | 0.468 | 0.743 | 0.35 | 0.342 | 0.327 | 0.289 | 0.317 | – | – | – | – | – | – | – | – | – | –
23 | SW 900 | 0.651 | 0.602 | 0.76 | 0.61 | 0.621 | 0.513 | 0.521 | 0.54 | 0.542 | 0.47 | – | – | – | – | – | – | – | – | – | –
